Among the data in ChEMBL document CHEMBL3991601, “The target landscape of clinical kinase drugs” (Science, 2017) are Kd values, retold here.

Test [1] addresses T1, Interleukin-1 receptor-associated kinase 3 (Homo sapiens, UniProt Q9Y616).
T1 sequence (Q9Y616 whole entry): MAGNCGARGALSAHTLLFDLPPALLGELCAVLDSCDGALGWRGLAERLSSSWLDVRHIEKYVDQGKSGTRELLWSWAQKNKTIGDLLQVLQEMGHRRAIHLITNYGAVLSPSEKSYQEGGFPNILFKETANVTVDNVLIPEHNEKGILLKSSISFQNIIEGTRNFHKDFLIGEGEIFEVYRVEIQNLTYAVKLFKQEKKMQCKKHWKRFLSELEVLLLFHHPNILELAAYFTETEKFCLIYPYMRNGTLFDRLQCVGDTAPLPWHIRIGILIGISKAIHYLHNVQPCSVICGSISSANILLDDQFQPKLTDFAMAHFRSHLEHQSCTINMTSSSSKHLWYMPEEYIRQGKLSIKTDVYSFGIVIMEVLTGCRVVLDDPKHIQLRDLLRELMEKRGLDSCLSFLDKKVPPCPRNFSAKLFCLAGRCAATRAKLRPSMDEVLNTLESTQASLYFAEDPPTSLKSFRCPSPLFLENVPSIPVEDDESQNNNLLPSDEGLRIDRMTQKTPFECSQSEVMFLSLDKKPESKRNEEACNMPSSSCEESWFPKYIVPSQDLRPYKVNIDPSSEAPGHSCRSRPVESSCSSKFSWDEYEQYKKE

For test [2], the target named is Rho-associated protein kinase 2 (Homo sapiens, UniProt O75116).
Sequence of Rho-associated protein kinase 2 (O75116 whole entry): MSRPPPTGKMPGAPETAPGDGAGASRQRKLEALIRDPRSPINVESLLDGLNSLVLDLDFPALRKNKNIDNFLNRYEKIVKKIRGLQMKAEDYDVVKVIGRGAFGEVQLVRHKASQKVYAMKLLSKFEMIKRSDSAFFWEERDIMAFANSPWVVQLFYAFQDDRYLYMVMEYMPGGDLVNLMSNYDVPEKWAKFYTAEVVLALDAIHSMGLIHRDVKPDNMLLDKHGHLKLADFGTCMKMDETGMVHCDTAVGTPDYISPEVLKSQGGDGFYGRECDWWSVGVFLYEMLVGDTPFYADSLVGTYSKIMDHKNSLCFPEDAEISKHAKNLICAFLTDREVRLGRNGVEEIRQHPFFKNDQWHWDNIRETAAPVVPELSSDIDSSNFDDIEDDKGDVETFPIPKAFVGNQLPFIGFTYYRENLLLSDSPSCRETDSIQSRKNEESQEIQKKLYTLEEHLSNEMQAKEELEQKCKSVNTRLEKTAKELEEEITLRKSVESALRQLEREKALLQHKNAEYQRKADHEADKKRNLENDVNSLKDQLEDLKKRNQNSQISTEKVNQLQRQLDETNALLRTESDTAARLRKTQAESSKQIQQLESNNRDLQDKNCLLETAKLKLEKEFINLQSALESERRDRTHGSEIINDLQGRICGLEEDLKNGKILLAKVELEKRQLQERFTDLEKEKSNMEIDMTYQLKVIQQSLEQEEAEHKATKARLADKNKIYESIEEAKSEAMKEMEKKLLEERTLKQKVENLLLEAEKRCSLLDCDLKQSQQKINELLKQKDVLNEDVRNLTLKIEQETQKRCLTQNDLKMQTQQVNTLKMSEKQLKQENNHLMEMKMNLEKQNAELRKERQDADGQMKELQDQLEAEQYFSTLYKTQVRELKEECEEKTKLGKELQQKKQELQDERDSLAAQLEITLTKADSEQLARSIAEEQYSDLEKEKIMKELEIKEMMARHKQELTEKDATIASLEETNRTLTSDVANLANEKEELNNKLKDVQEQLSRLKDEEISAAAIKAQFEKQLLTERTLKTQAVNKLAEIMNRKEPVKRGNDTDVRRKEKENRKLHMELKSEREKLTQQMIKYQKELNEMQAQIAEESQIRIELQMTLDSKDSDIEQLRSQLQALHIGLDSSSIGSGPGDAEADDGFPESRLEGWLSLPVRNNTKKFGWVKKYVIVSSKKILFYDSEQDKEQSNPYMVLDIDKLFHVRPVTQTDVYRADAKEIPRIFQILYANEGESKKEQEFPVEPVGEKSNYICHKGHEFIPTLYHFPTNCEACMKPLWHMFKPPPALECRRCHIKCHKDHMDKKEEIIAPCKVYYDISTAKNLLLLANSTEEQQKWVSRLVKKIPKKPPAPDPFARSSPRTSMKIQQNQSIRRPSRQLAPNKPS
Test [3] concerns the target T2, Serine/threonine-protein kinase D3 (Homo sapiens, UniProt O94806).
T2 sequence (O94806 whole entry): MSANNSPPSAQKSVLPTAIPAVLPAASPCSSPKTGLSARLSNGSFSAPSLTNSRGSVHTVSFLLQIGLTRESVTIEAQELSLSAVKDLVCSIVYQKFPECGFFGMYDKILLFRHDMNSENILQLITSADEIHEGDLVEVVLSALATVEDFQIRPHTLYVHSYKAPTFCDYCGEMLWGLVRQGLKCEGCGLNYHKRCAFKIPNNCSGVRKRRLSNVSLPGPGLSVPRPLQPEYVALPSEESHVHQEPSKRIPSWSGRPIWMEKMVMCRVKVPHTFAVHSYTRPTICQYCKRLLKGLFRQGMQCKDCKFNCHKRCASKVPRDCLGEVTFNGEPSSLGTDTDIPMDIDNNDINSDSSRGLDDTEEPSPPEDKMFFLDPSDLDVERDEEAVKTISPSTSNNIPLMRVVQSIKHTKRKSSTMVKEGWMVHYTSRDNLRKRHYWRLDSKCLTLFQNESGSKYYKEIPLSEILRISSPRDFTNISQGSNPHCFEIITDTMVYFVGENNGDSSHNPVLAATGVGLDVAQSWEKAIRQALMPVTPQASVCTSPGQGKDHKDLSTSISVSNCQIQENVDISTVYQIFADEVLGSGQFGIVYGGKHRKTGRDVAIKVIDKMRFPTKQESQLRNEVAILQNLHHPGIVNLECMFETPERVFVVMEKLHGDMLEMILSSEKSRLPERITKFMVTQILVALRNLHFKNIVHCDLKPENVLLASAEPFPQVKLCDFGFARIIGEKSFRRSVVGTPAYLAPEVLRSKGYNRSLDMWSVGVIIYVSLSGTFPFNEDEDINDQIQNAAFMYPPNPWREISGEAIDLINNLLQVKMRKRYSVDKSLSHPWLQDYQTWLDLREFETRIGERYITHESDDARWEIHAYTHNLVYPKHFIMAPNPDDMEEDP

The target of a further test is Adenosine kinase (Homo sapiens, UniProt P55263).
Sequence of Adenosine kinase (P55263 whole entry): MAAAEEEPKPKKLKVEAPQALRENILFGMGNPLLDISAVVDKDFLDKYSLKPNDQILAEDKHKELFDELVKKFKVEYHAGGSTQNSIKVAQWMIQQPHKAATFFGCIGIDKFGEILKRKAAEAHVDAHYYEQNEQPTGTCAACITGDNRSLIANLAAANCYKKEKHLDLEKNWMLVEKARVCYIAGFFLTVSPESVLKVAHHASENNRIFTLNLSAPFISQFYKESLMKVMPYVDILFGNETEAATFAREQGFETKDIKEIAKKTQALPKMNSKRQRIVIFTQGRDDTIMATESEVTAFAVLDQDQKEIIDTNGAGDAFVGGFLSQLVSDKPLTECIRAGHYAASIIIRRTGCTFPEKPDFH
The target in test [4] is T3, Glycogen phosphorylase, liver form (Homo sapiens, UniProt P06737).
T3 sequence (P06737 whole entry): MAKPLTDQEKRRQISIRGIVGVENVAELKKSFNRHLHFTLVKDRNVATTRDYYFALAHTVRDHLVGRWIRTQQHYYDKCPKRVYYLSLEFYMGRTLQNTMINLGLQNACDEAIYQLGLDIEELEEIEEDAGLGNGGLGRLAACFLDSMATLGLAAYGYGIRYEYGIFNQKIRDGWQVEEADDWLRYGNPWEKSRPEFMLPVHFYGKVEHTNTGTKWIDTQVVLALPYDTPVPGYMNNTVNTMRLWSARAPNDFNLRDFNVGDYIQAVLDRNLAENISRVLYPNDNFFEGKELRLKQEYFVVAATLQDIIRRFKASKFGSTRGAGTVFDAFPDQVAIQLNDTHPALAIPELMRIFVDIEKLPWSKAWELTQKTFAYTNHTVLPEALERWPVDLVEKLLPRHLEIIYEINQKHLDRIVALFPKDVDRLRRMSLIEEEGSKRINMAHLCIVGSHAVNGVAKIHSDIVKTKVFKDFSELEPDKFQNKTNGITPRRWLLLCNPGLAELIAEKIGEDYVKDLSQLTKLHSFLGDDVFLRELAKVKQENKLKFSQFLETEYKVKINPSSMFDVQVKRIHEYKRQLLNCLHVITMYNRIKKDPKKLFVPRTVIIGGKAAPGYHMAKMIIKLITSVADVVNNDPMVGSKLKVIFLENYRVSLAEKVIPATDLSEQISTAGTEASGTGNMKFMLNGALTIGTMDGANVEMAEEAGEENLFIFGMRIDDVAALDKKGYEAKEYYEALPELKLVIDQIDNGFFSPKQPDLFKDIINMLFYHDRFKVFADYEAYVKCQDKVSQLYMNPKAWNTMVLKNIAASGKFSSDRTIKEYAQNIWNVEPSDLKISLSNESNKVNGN
Type of test: subcellular, K-562, COLO 205, SK-N-BE(2) and MV-4-11, Cell lysate. The settings on record: read-out: Kd apparent.

SMILES strings stand for the structures. The source made the active and inactive calls. For most assays here, no stated cut-off is given here; in the data, actives have a measured Kd and inactives only a lower limit. A value given as a limit tells only on which side of the number the result lay.

Regarding `Cn1cc(-c2[nH]c3cc(NC(=O)[C@H](N)C4CCCCC4)cc4c3c2C=NNC4=O)cn1`, the Kd (in test [1]; in test [2]; in test [3]; on Adenosine kinase; in test [4]) was > 30 µM (inactive) each time.

With `COCCN1CCN(Cc2ccc(-c3n[nH]c4c3C(=O)c3c(NC(=O)NN5CCOCC5)cccc3-4)cc2)CC1` [RGB-286638], the Kd is > 30 µM (inactive) in test [1]; > 30 µM (inactive) in test [2]; 0.297 µM (active) in test [3]; > 30 µM (inactive) at Adenosine kinase; > 30 µM (inactive) in test [4].

Consider `C[C@@H]1COC(Nc2ccc3ncnc(Nc4ccc(OCc5nccs5)c(Cl)c4)c3c2)=N1` [VARLITINIB], for which the Kd (in test [1]; in test [2]; in test [3]; on Adenosine kinase; in test [4]) was > 30 µM (inactive) throughout.

Regarding `C=CCN(/C=C1/C(=O)O[C@H](COC)[C@@]2(C)C1=C(O)C(=O)C1=C2[C@H](OC(C)=O)C[C@]2(C)C(=O)CC[C@@H]12)CC=C` [SONOLISIB], the Kd (in test [1]; in test [2]; in test [3]; on Adenosine kinase; in test [4]) was > 30 µM (inactive) throughout.

Consider `O=C(NC[C@H](O)CO)c1ccncc1Nc1ccc(I)cc1F` [PIMASERTIB], for which the Kd (in test [1]; in test [2]; in test [3]; on Adenosine kinase; in test [4]) was > 30 µM (inactive) in each case.

On to `CCc1cc2c(cc1N1CCC(N3CCOCC3)CC1)C(C)(C)c1[nH]c3cc(C#N)ccc3c1C2=O` [ALECTINIB], for which the Kd (in test [1]; in test [2]; in test [3]; on Adenosine kinase; in test [4]) was > 30 µM (inactive) each time.

As for `Cc1c(NC(=O)OC[C@@H]2COCCN2)cn2ncnc(Nc3ccc4c(cnn4Cc4cccc(F)c4)c3)c12` [AC-480], the Kd (in test [1]; in test [2]; in test [3]; on Adenosine kinase; in test [4]) was > 30 µM (inactive) in each case.

As for `COc1cc(Nc2ncc(F)c(Nc3ccc4c(n3)N(COP(=O)(O)O)C(=O)C(C)(C)O4)n2)cc(OC)c1OC` [FOSTAMATINIB], the Kd in test [1] was 1.29 µM (active); in test [2] it was > 30 µM (inactive); in test [3], > 30 µM (inactive); at Adenosine kinase, > 30 µM (inactive); in test [4], > 30 µM (inactive).

`CN1CCN(c2nc(C3=C(c4c[nH]c5ccccc45)C(=O)NC3=O)c3ccccc3n2)CC1` [SOTRASTAURIN]: the Kd (in test [1]; in test [2]; in test [3]; on Adenosine kinase; in test [4]) was > 30 µM (inactive) each time.

Regarding `CC(C)CC(=O)Nc1[nH]nc2c1CN(C(=O)C1CCN(C)CC1)C2(C)C` [PHA-793887], the Kd in test [1] was > 30 µM (inactive); in test [2], > 30 µM (inactive); in test [3], 0.065 µM (active); on Adenosine kinase it was > 30 µM (inactive); in test [4], > 30 µM (inactive).

Consider `COc1cccc2cc(-c3nc([C@H]4CC[C@H](C(=O)O)CC4)n4ncnc(N)c34)[nH]c12` [OSI-027], for which the Kd (in test [1]; in test [2]; in test [3]; at Adenosine kinase; in test [4]) was > 30 µM (inactive) each time.

Turning to `COc1ccc2c(OCc3nnc4ccc(-c5ccccc5)nn34)ccnc2c1` [AMG-208], the Kd (in test [1]; in test [2]; in test [3]; on Adenosine kinase; in test [4]) was > 30 µM (inactive) in each case.

On to `COc1cc2ncnc(Nc3ccc(F)c(Cl)c3)c2cc1NC(=O)/C=C/CN1CCCCC1` [DACOMITINIB ANHYDROUS], for which the Kd (in test [1]; in test [2]; in test [3]; on Adenosine kinase; in test [4]) was > 30 µM (inactive) throughout.

With `CC[C@@](C)(Nc1ccnc(-c2c[nH]c3ncccc23)n1)C(=O)NCC(F)(F)F` [DECERNOTINIB], the Kd in test [1] is > 30 µM (inactive); in test [2] it was 56.1 µM (active); in test [3], > 30 µM (inactive); at Adenosine kinase, > 30 µM (inactive); in test [4], > 30 µM (inactive).

On to `O=C(NOC[C@H](O)CO)c1ccc(F)c(F)c1Nc1ccc(I)cc1F` [MIRDAMETINIB], for which the Kd (in test [1]; in test [2]; in test [3]; on Adenosine kinase; in test [4]) was > 30 µM (inactive) in each case.

Regarding `COc1cc2nccc(Oc3ccc(NC(=O)C4(C(=O)Nc5ccc(F)cc5)CC4)cc3)c2cc1OC` [CABOZANTINIB], the Kd (in test [1]; in test [2]; in test [3]; on Adenosine kinase; in test [4]) was > 30 µM (inactive) throughout.

Consider `NC[C@@](O)(c1ccc(Cl)cc1)c1ccc(-c2cn[nH]c2)cc1` [AT-13148], for which the Kd in test [1] is > 30 µM (inactive); in test [2], 0.026 µM (active); in test [3], > 30 µM (inactive); on Adenosine kinase, > 30 µM (inactive); in test [4] it was > 30 µM (inactive).
